From publication PMC12275099, “VX-445 (elexacaftor) inhibits chloride secretion across human bronchial epithelial cells by directly blocking KCa3.1 channels” (PNAS Nexus, 2025)

Target: T1, endogenous KCa3.1 in WT CFTR-expressing HBEs (Homo sapiens, UniProt O15554)
T1 construct: endogenous in cells; host or cells: undifferentiated primary human bronchial epithelial cells (WT CFTR donors)
Assay: Whole-cell patch-clamp on undifferentiated HBEs
Assay type: cell-based
Settings: VX-445 10 µM; 500 nM free Ca2+ in pipette; n = 3; read-out: inhibition of whole-cell outward potassium current
Description: Our Isc results are consistent with VX-445 inhibiting KCa3.1 in HBEs. To directly assess this possibility, we initially carried out whole-cell patch-clamp studies on undifferentiated HBEs. […] Upon application of 10 µM VX-445, a majority of this current was inhibited, averaging 87 ± 4% (n = 3, P < 0.005; Fig. 3B). A summary of the current–voltage (I–V) relationship—normalized to cell capacitance—is shown in Fig. 3C, which also includes the whole-cell I–V in the presence of Tram-34. […] To ensure isolation of KCa3.1 currents and to more fully characterize this VX-445-dependent inhibition of KCa3.1, we utilized HEK cells heterologously expressing KCa3.1 (HEK-KCa3.1). Initially, we confirmed our results from HBEs, using whole-cell recordings, as above. […] In seven experiments, this inhibition averaged 58 ± 7% (P < 0.005). […] It is well recognized that drugs are carried to their targets in the blood bound to albumin, which ranges from 3.4 to 5.4%. Thus, we determined whether VX-445 (10 µM) would inhibit KCa3.1 expressed in HEK cells in the presence of 3.4% albumin. In four experiments, VX-445 inhibited an average of 51 ± 17% of the whole-cell KCa3.1 current, which is not different from that observed in the absence of albumin. To confirm the direct effect of VX-445 on KCa3.1, we utilized the excised, inside-out patch-clamp technique. The patch was then exposed to DCEBIO (100 µM) to further activate the channels ([34–37])—analogous to our Isc studies in HBEs. […] In three experiments, VX-445 inhibited an average of 63 ± 6% of the KCa3.1 current. Based on these experiments, we determined the apparent inhibitory constant, Ki for VX-445. For these experiments, patches were excised into saturating Ca^2+ (3 µM) to ensure maximal KCa3.1 activation. These studies were carried out in the absence of DCEBIO to eliminate the possibility that the inhibition observed was due to competition for the DCEBIO-binding site.
Primary human bronchial epithelial cells (HBEs) were collected from unused or discarded samples from the Center for Organ Recovery and Education via the University of Pittsburgh Pulmonary, Allergy, Critical Care, and Sleep Medicine Lung Biobank and Repository. All experimental procedures involving the use of HBEs were approved by the institutional review board (IRB STUDY19090084) and the Committee for Oversight of Research and Clinical Training Involving Decedents (CORID number 451) at the University of Pittsburgh. At all times, authors were blind to the identity of HBE donors. HBEs were cultured using the Vertex method ([72]). Studies were carried out on WT CFTR HBEs from 11 ([13]) donors and homozygous F508del/F508del CFTR HBEs from five ([5]) separate donors. […]

Q: `Cc1nn(C)cc1S(=O)(=O)NC(=O)c1ccc(-n2ccc(OCC(C)(C)C(F)(F)F)n2)nc1N1C[C@@H](C)CC1(C)C` [VX-445, elexacaftor] was tested. Which inhibition at 10 µM did it give?
A: 87 ± 4%
